“Also recorded” adds a separate entry of the source.
Legend:
TRPV4 = TRPV4 (Rattus norvegicus, UniProt Q9ERZ8); assay: Ca++ imaging in primary astrocytes, GSK101 stimulation; format: cell-based; details: GSK101 5 nM
Method: Figure 4 Compound 16-8 inhibits TRPV4 in I˚ cells more potently than GSK205. […] Inset: Chondrocytes responding to activation with GSK101, fura-2 Ca^++ imaging; right-hand image taken at 5 sec after GSK101 application. […] (B) I˚ astrocytes (rat); dose-response comparison between 16-8 and GSK205 in response to 5 nM GSK101. Inset: Astrocytes responding to activation with GSK101; right-hand image taken at 5 sec after GSK101 application (mean ± SEM, n = 5 independent expts, n ≥ 200 cells/expt; *p < 0.05, t-test).
Astrocyte cultures were conducted following established protocols. Astrocytes were prepared from Sprague Dawley rat embryos (E18). Briefly, the isolated cortices were minced, and then incubated with trypsin and DNase. Dissociated cells were suspended in Dulbeccco’s Modified Eagle’s Medium (DMEM) supplemented with 10% fetal calf serum and penicillin/streptomycin (100 U/ml and 100 μg/ml, respectively). Thereafter, cell suspensions were plated in 75 cm^2 tissue culture flasks (10 × 10^6 cells/flask) which were pre-coated with poly-L-lysine (10 μg/ml). The cells were maintained in a 10%CO2 incubator at 37 °C.

[1] = system: formalin-evoked trigeminal irritant pain (TRPA1 contribution); assay: Trigeminal formalin irritant pain model, Trpv4-/- mice; format: in vivo, mouse; details: 10 mg/kg i.p.; for late-phase pain behavior: vs vehicle
Method: Figure 7 16-8 and 16-19 effectively attenuate formalin-evoked trigeminal irritant pain. (A) Time-course of nocifensive behavior in WT mice following whisker-pad injection of 4% formalin. The mice were pre-injected (i.p., 10 mg/kg; 15 min before formalin) with GSK205, 16-8 or 16-19. Note effective reduction of nocifensive behavior in the late “neural” phase by compounds 16-8, 16-19, not by GSK205. (B) Cumulative response binned into 3 phases: acute phase (0–5 min), interphase (5–15 min), and late “neural” phase (15–45 min). […] (C) As in (A), but also including Trpv4^−/− mice. Compounds were applied i.p. 15 min before formalin challenge, at 10 mg/kg except established TRPA1 blocker, A967079 (25 mg/kg). Previously-established attenuated nocifensive behavior in early and late phase in Trpv4^−/− mice was recapped, which was reduced further by TRPA1 blocker, A967079. (D) As in (B), plus inclusion of Trpv4^−/− mice. Robust effects of TRPA1-blocker, A967079, were mimicked equi-potently by 16-8 and 16-19 for early phase, and by 16-8 for late phase, partially by 16-19 for late phase. (A,C) show averaged behavioral metrics per time-point, bars in (B,D) represent mean ± SEM; for (D) ^*P < 0.05; ^#P < 0.005, one-way ANOVA; for all panels n = 5–8 mice/group. […] We observed significant residual irritant-pain behavior in all phases of the formalin model in Trpv4^−/− mice, consistent with our previous report[13] (Fig. 7C,D). […] A reference TRPA1-inhibitory compound, A967079, was used at 25 mg/kg body weight as a positive control to inhibit TRPA1, based on a previous report. Reduction of pain behavior in Trpv4^−/− mice was striking, more than 50% in the late neural phase. […] We conclude that compound 16-8 also functions as a potent TRPA1-inhibitor in an in-vivo irritant pain model specifically designed to assess the contribution of TRPA1 to trigeminal irritant pain, and at least as potent as an established reference TRPA1-antagonistic compound. Implementation of this model was conducted as described previously. Video-taped nocifensive behavior was assessed by investigators blinded to genotype and treatment.

[2] = system: caerulein-evoked acute pancreatitis; assay: Caerulein-induced acute pancreatitis mouse model; format: in vivo; details: 10 mg/kg i.p., 30 min before caerulein
Method: C57BL/6J male mice 8–10 weeks of age were subjected to acute pancreatitis by intraperitoneal injections of supramaximal doses of caerulein (50 μg/kg) every hour for a total of 6 h, as previously described in[61]. Control animals received 25% DMSO-saline solution by intraperitoneal injection every hour for 6 h. Compound 16-8 was dissolved in this vehicle (10 mg/kg) and injected i.p. 30 min prior to the first injection of caerulein. Animals were sacrificed 1 h after the last injection. Blood was collected and pancreatic tissue was promptly isolated, weighed for determination of pancreas wet weight/body weight ratio. Samples of tissues were fixed overnight in 10% neutral-buffered formalin, paraffin embedded and H&E-stained, or pancreatic tissue was quickly frozen and assessed for myeloperoxidase (MPO) activity. Serum amylase, MPO and histologic evaluation were conducted as described previously. Assessment of nocifensive behavior[8]: Mice were housed in individual cages and video-recorded during the entire experiment. Two mice at a time were observed. Linear movement was measured as one event when mice passed through the median plane of the cage. Analysis began immediately after the first caerulein/vehicle injection and continued until the end of the experiment. Results were expressed as the sum of the movement events spanning the 6 h time-period following the first injection.

TRPV3 = biological target: T1, TRPV3 (Mus musculus, UniProt Q8K424); assay: Ca++ imaging in N2a cells over-expressing TRPV3 (camphor); details: 5 μM
T1 sequence (Q8K424 1-791): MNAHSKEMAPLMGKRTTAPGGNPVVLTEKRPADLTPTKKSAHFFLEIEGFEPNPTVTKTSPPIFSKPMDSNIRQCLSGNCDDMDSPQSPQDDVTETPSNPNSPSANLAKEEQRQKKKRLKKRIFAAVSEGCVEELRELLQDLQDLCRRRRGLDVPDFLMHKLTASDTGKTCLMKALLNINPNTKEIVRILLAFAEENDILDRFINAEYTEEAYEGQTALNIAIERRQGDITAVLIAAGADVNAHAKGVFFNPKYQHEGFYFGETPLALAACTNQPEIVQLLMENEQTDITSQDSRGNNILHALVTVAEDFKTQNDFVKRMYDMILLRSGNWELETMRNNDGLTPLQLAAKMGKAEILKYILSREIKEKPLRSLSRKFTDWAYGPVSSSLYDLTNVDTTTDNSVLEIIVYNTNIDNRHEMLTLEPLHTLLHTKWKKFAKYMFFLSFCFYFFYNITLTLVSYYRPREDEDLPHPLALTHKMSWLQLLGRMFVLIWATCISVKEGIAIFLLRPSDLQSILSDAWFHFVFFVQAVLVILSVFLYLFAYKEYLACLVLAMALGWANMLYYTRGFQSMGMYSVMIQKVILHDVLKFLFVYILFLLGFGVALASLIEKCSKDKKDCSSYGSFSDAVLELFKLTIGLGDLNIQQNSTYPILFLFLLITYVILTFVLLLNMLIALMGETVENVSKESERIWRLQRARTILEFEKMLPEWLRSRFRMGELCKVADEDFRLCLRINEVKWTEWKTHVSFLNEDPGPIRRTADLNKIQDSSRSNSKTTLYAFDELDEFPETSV
Method: (§1) (A) Specificity vs TRPV1-3. […] Mean±SEM is shown, ≥100 cells per condition. […] Plot generated from averaged peak ∆Ca^++ concentration of ≥75 cells per data-point.
(§2) N2a cells were used for directed expression of TRP ion channels as described previously[13]. […] All other channels were native channels from mouse, eGFP was co-transfected. […] Ca^++ imaging was performed as described previously[13][14][34].

TRPV1 = TRPV1 (Mus musculus, UniProt Q704Y3); assay: Ca++ imaging in N2a cells over-expressing TRPV1 (capsaicin); details: 5 μM
Sequence of TRPV1 (Q704Y3 whole entry): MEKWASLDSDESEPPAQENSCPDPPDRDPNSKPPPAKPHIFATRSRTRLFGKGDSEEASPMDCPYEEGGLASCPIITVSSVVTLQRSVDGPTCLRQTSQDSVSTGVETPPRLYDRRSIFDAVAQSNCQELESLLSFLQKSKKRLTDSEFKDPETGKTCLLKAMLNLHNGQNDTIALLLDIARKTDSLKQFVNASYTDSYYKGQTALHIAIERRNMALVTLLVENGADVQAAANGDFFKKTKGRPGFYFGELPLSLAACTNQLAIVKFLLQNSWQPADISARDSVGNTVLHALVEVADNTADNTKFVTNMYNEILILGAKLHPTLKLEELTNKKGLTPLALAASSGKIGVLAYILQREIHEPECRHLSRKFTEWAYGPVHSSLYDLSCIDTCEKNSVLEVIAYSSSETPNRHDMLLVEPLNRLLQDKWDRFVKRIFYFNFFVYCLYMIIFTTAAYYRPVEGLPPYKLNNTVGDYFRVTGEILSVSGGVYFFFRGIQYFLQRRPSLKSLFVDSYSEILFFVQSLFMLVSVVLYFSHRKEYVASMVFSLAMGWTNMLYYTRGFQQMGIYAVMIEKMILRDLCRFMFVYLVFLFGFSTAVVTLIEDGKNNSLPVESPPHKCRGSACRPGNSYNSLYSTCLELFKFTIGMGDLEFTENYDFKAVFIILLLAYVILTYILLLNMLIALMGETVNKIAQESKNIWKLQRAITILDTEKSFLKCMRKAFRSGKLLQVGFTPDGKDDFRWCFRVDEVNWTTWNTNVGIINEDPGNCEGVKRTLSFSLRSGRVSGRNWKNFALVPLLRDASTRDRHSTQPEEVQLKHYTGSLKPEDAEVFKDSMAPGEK
Method: as §1, §2

Sequence of TRPV4 (Q9ERZ8 whole entry): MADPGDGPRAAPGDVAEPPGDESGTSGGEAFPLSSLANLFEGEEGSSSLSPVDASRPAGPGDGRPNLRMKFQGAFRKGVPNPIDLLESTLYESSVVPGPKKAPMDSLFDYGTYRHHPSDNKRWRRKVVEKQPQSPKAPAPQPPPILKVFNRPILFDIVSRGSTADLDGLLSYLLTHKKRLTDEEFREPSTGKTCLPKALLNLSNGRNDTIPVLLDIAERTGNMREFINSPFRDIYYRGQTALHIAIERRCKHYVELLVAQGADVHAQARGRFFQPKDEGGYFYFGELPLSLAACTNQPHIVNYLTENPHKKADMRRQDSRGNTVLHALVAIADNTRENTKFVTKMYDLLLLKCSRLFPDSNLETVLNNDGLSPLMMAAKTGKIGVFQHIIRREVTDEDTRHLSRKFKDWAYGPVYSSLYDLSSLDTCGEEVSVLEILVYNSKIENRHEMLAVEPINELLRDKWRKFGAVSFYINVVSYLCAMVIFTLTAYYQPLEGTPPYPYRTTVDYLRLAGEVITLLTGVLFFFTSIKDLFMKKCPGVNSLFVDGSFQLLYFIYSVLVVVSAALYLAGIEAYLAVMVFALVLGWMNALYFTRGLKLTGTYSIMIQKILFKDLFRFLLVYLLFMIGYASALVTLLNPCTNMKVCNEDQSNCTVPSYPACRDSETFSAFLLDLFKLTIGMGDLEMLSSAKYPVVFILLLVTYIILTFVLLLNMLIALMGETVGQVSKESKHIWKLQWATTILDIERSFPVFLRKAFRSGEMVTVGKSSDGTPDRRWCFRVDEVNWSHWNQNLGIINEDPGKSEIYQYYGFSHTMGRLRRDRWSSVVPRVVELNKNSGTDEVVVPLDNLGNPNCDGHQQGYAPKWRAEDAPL

| Structure (SMILES) | potency vs GSK205, dose-response of peak ∆Ca++ (TRPV4) | immediate-phase pain behavior [1] | late-phase pain behavior [1] | histopathological score for pancreas inflammation [2] | myelo-peroxidase (MPO) [2] | pain behavior (nocifensive behavior, 6 h test period) [2] | pancreatic edema [2] | inhibition of TRPV3 (TRPV3) | inhibition of TRPV1 (TRPV1) |
| --- | --- | --- | --- | --- | --- | --- | --- | --- | --- |
| CN(CCc1ccc(Nc2nc(-c3ccccc3)cs2)cc1)Cc1ccccc1 [16-8] | significantly increased potency | virtually eliminated | strikingly reduced | significantly reduced; also recorded: significant reduction | significantly reduced | virtually eliminated; also recorded: significantly reduced | virtually eliminated | did not inhibit | did not inhibit |
| CCN(CCc1ccc(Nc2nc(-c3ccccc3)cs2)cc1)Cc1ccccc1 [16-19] | – | virtually eliminated | still significantly reduced | – | – | – | – | did not inhibit | did not inhibit |

— paper PMC4887995, “Small molecule dual-inhibitors of TRPV4 and TRPA1 for attenuation of inflammation and pain” (Scientific Reports, 2016)
